From patent publication US20230002359A1, “PESTICIDALLY ACTIVE FUSED BICYCLIC HETEROAROMATIC COMPOUNDS” (priority 2019, published 2023)

Assays:
Type in all cases: in vivo
[1] = tested on: Plutella xylostella (Diamond Back Moth); experiment: Example B4: Plutella xylostella (diamond back moth), artificial diet, eggs, 24-well; details: 192 h, application rate of 200 ppm, 8 days after infestation, eggs, read-out: control in at least one of the two categories (mortality or growth inhibition)
Method: 24-well microtiter plates with artificial diet were treated with aqueous test solutions prepared from 10′000 ppm DMSO stock solutions by pipetting. After drying, Plutella eggs were pipetted through a plastic stencil onto a gel blotting paper and the plate was closed with it. The samples were assessed for mortality and growth inhibition in comparison to untreated samples 8 days after infestation.

[2] = tested on: Diabrotica Balteata (Corn Root Worm); experiment: Example B1: Diabrotica balteata (corn root worm), maize sprouts sprayed, L2 larvae; details: 96 h, application rate of 200 ppm, 4 days after infestation, L2 larvae, read-out: control in at least one of the two categories (mortality or growth inhibition)
Method: Maize sprouts placed onto an agar layer in 24-well microtiter plates were treated with aqueous test solutions prepared from 10′000 ppm DMSO stock solutions by spraying. After drying, the plates were infested with L2 larvae (6 to 10 per well). The samples were assessed for mortality and growth inhibition in comparison to untreated samples 4 days after infestation.

[3] = tested on: Chilo suppressalis (Striped Rice Stemborer); experiment: Example B3: Chilo suppressalis (striped rice stemborer), artificial diet, L2 larvae; details: 144 h, application rate of 200 ppm, 6 days after infestation, L2 larvae, read-out: control in at least one of the three categories (mortality, anti-feedant effect, or growth inhibition)
Method: 24-well microtiter plates with artificial diet were treated with aqueous test solutions prepared from 10′000 ppm DMSO stock solutions by pipetting. After drying, the plates were infested with L2 larvae (6-8 per well). The samples were assessed for mortality, anti-feeding effect, and growth inhibition in comparison to untreated samples 6 days after infestation. Control of Chilo suppressalis by a test sample is given when at least one of the categories mortality, anti-feedant effect, and growth inhibition is higher than the untreated sample.

[4] = tested on: Spodoptera littoralis (Egyptian Cotton Leaf Worm); experiment: Example B7: Spodoptera littoralis (Egyptian cotton leaf worm), cotton leaf discs sprayed, L1 larvae; details: foliar, 72 h, application rate of 200 ppm, 3 days after infestation, L1 larvae, read-out: control in at least one of the three categories (mortality, anti-feedant effect, or growth inhibition)
Method: Cotton leaf discs were placed onto agar in 24-well microtiter plates and sprayed with aqueous test solutions prepared from 10′000 ppm DMSO stock solutions. After drying the leaf discs were infested with five L1 larvae. The samples were assessed for mortality, anti-feeding effect, and growth inhibition in comparison to untreated samples 3 days after infestation. Control of Spodoptera littoralis by a test sample is given when at least one of the categories mortality, anti-feedant effect, and growth inhibition is higher than the untreated sample.

CC(c1nc(Br)nn1-c1ncccn1)N(C)c1ncnc2c(C(F)(F)F)cc(C(F)(F)F)cc12 (centres unmarked) [P.4, N-[1-(5-bromo-2-pyrimidin-2-yl-1,2,4-triazol-3-yl)ethyl]-N-methyl-6,8-bis(trifluoromethyl)quina-zolin-4-amine]
≥ 80%: percent control (mortality or growth inhibition) at 200 ppm [1] | percent control (mortality or growth inhibition) at 200 ppm [2] | percent control (mortality, anti-feedant effect or growth inhibition) at 200 ppm [3] | percent control (mortality, anti-feedant effect or growth inhibition) at 200 ppm [4]

C[C@H](Nc1ccnc2c(C(F)(F)F)cc(C(F)(F)F)cc12)c1ncnn1-c1ncccn1 [P.5, N-[(1S)-1-(2-pyrimidin-2-yl-1,2,4-triazol-3-yl)ethyl]-6,8-bis(trifluoromethyl)quinolin-4-amine]
≥ 80%: percent control (mortality or growth inhibition) at 200 ppm [1] | percent control (mortality or growth inhibition) at 200 ppm [2] | percent control (mortality, anti-feedant effect or growth inhibition) at 200 ppm [3] | percent control (mortality, anti-feedant effect or growth inhibition) at 200 ppm [4]

CC(c1ncnn1-c1ccc(C#N)cn1)N(C#N)c1ncnc2c(C(F)(F)F)cc(C(F)(F)F)cc12 (centres unmarked) [P.9, [6,8-bis(trifluoromethyl)quina-zolin-4-yl]-[1-[2-(5-cyano-2-pyridyl)-1,2,4-triazol-3-yl]ethyl]cyanamide]
≥ 80%: percent control (mortality or growth inhibition) at 200 ppm [1] | percent control (mortality or growth inhibition) at 200 ppm [2] | percent control (mortality, anti-feedant effect or growth inhibition) at 200 ppm [3] | percent control (mortality, anti-feedant effect or growth inhibition) at 200 ppm [4]

CC(Nc1ncnc2c(Br)cc(OC(F)(F)F)cc12)c1nccnc1-n1nccn1 (centres unmarked) [P.13, 8-bromo-N-[1-[3-(triazol-2-yl)pyrazin-2-yl]ethyl]-6-(trifluoromethoxy)quina-zolin-4-amine]
≥ 80%: percent control (mortality or growth inhibition) at 200 ppm [1] | percent control (mortality or growth inhibition) at 200 ppm [2] | percent control (mortality, anti-feedant effect or growth inhibition) at 200 ppm [3] | percent control (mortality, anti-feedant effect or growth inhibition) at 200 ppm [4]

CC(Nc1ncnc2c(OC(F)(F)F)cc(Br)cc12)c1nccnc1-n1nccn1 (centres unmarked) [P.14, 6-bromo-N-[1-[3-(triazol-2-yl)pyrazin-2-yl]ethyl]-8-(trifluoromethoxy)quina-zolin-4-amine]
≥ 80%: percent control (mortality or growth inhibition) at 200 ppm [1] | percent control (mortality or growth inhibition) at 200 ppm [2] | percent control (mortality, anti-feedant effect or growth inhibition) at 200 ppm [3] | percent control (mortality, anti-feedant effect or growth inhibition) at 200 ppm [4]

C[C@H](Nc1ncnc2c(Cl)cc(C(F)(F)F)cc12)c1ncnn1-c1ccc(C#N)cn1 [P.17, 6-[5-[(1S)-1-[[8-chloro-6-(trifluoromethyl)quinazolin-4-yl]amino]ethyl]-1,2,4-triazol-1-yl]pyridine-3-carbonitrile]
≥ 80%: percent control (mortality or growth inhibition) at 200 ppm [1] | percent control (mortality or growth inhibition) at 200 ppm [2] | percent control (mortality, anti-feedant effect or growth inhibition) at 200 ppm [3] | percent control (mortality, anti-feedant effect or growth inhibition) at 200 ppm [4]

C[C@@H](c1ncnn1-c1ccc(C#N)cn1)N(C)c1ncnc2c(Cl)cc(C(F)(F)F)cc12 [P.19, 6-[5-[(1S)-1-[[8-chloro-6-(trifluoromethyl)quinazolin-4-yl]-methyl-amino]ethyl]-1,2,4-triazol-1-yl]pyridine-3-carbonitrile]
≥ 80%: percent control (mortality or growth inhibition) at 200 ppm [1] | percent control (mortality or growth inhibition) at 200 ppm [2] | percent control (mortality, anti-feedant effect or growth inhibition) at 200 ppm [3] | percent control (mortality, anti-feedant effect or growth inhibition) at 200 ppm [4]

CC(Nc1nc(Cl)nc2c(C(F)(F)F)cc(C(F)(F)F)cc12)c1ncnn1-c1ncccn1 (centres unmarked) [P.25, 2-chloro-N-[1-(2-pyrimidin-2-yl-1,2,4-triazol-3-yl)ethyl]-6,8-bis(trifluoromethyl)quinazolin-4-amine]
≥ 80%: percent control (mortality or growth inhibition) at 200 ppm [2] | percent control (mortality, anti-feedant effect or growth inhibition) at 200 ppm [3] | percent control (mortality, anti-feedant effect or growth inhibition) at 200 ppm [4]

CC(Nc1ncnc2c(Br)cc(Br)cc12)c1ncnn1-c1ccc(C#N)cn1 (centres unmarked) [P.30, 6-[5-[1-[(6,8-dibromoquinazolin-4-yl)amino]ethyl]-1,2,4-triazol-1-yl]pyridine-3-carbonitrile]
≥ 80%: percent control (mortality or growth inhibition) at 200 ppm [1] | percent control (mortality or growth inhibition) at 200 ppm [2] | percent control (mortality, anti-feedant effect or growth inhibition) at 200 ppm [3] | percent control (mortality, anti-feedant effect or growth inhibition) at 200 ppm [4]

CC(Nc1ncnc2c(OC(F)F)cc(Br)cc12)c1nccnc1-n1nccn1 (centres unmarked) [P.31, 6-bromo-8-(difluoromethoxy)-N-[1-[3-(triazol-2-yl)pyrazin-2-yl]ethyl]quinazolin-4-amine]
≥ 80%: percent control (mortality or growth inhibition) at 200 ppm [1] | percent control (mortality or growth inhibition) at 200 ppm [2] | percent control (mortality, anti-feedant effect or growth inhibition) at 200 ppm [3] | percent control (mortality, anti-feedant effect or growth inhibition) at 200 ppm [4]

CC(Nc1ncnc2c(C(F)(F)F)cc(Br)cc12)c1nccnc1-n1nccn1 (centres unmarked) [P.33, 6-bromo-N-[1-[3-(triazol-2-yl)pyrazin-2-yl]ethyl]-8-(trifluoromethyl)quinazolin-4-amine]
≥ 80%: percent control (mortality or growth inhibition) at 200 ppm [1] | percent control (mortality or growth inhibition) at 200 ppm [2] | percent control (mortality, anti-feedant effect or growth inhibition) at 200 ppm [3] | percent control (mortality, anti-feedant effect or growth inhibition) at 200 ppm [4]

CC(Nc1ncnc2c(Br)cc(C(F)(F)F)cc12)c1nccnc1-n1nccn1 (centres unmarked) [P.34, 8-bromo-N-[1-[3-(triazol-2-yl)pyrazin-2-yl]ethyl]-6-(trifluoromethyl)quinazolin-4-amine]
≥ 80%: percent control (mortality or growth inhibition) at 200 ppm [1] | percent control (mortality or growth inhibition) at 200 ppm [2] | percent control (mortality, anti-feedant effect or growth inhibition) at 200 ppm [3] | percent control (mortality, anti-feedant effect or growth inhibition) at 200 ppm [4]

CC(Nc1ncnc2c(Cl)cc(C(F)(F)F)cc12)c1nccnc1-n1nccn1 (centres unmarked) [P.35, 8-chloro-N-[1-[3-(triazol-2-yl)pyrazin-2-yl]ethyl]-6-(trifluoromethyl)quinazolin-4-amine]
≥ 80%: percent control (mortality or growth inhibition) at 200 ppm [1] | percent control (mortality or growth inhibition) at 200 ppm [2] | percent control (mortality, anti-feedant effect or growth inhibition) at 200 ppm [3] | percent control (mortality, anti-feedant effect or growth inhibition) at 200 ppm [4]

CC(Nc1ncnc2c(Br)cc(Br)cc12)c1nccnc1-n1nccn1 (centres unmarked) [P.37, 6,8-dibromo-N-[1-[3-(triazol-2-yl)pyrazin-2-yl]ethyl]quinazolin-4-amine]
≥ 80%: percent control (mortality or growth inhibition) at 200 ppm [1] | percent control (mortality or growth inhibition) at 200 ppm [2] | percent control (mortality, anti-feedant effect or growth inhibition) at 200 ppm [3] | percent control (mortality, anti-feedant effect or growth inhibition) at 200 ppm [4]

CC(Nc1ncnc2c(Br)cc(Br)cc12)c1nccnc1-c1ncccn1 (centres unmarked) [P.38, 6,8-dibromo-N-[1-(3-pyrimidin-2-ylpyrazin-2-yl)ethyl]quinazolin-4-amine]
≥ 80%: percent control (mortality or growth inhibition) at 200 ppm [1] | percent control (mortality or growth inhibition) at 200 ppm [2] | percent control (mortality, anti-feedant effect or growth inhibition) at 200 ppm [3] | percent control (mortality, anti-feedant effect or growth inhibition) at 200 ppm [4]

CC(Nc1ncnc2c(C(F)(F)F)cc(Cl)cc12)c1nccnc1-n1nccn1 (centres unmarked) [P.39, 6-chloro-N-[1-[3-(triazol-2-yl)pyrazin-2-yl]ethyl]-8-(trifluoromethyl)quinazolin-4-amine]
≥ 80%: percent control (mortality or growth inhibition) at 200 ppm [1] | percent control (mortality or growth inhibition) at 200 ppm [2] | percent control (mortality, anti-feedant effect or growth inhibition) at 200 ppm [3] | percent control (mortality, anti-feedant effect or growth inhibition) at 200 ppm [4]

C[C@H](c1ncnn1-c1ccc(C#N)cn1)N(C)c1ncnc2c(C(F)(F)F)cc(C(F)(F)F)cc12 [P.53, 6-[5-[(1R)-1-[[6,8-bis(trifluoromethyl)quina-zolin-4-yl]-methyl-amino]ethyl]-1,2,4-triazol-1-yl]pyridine-3-carbonitrile]
≥ 80%: percent control (mortality or growth inhibition) at 200 ppm [1] | percent control (mortality, anti-feedant effect or growth inhibition) at 200 ppm [3] | percent control (mortality, anti-feedant effect or growth inhibition) at 200 ppm [4]

CC(Nc1ncnc2c(Cl)c(F)c(Cl)cc12)c1ncnn1-c1ncccn1 (centres unmarked) [P.166, 6,8-dichloro-7-fluoro-N-[1-(2-pyrimidin-2-yl-1,2,4-triazol-3-yl)ethyl]quinazolin-4-amine]
≥ 80%: percent control (mortality or growth inhibition) at 200 ppm [2] | percent control (mortality, anti-feedant effect or growth inhibition) at 200 ppm [4]

CC(Nc1ncnc2c(C(F)(F)F)cc(Cl)cc12)c1ncnn1-c1ccc(F)cn1 (centres unmarked) [P.234, 6-chloro-N-[1-[2-(5-fluroo-2-pyridyl)-1,2,4-triazol-3-yl]ethyl]-8-(trifluoromethyl)quinazolin-4-amine]
≥ 80%: percent control (mortality or growth inhibition) at 200 ppm [1] | percent control (mortality or growth inhibition) at 200 ppm [2] | percent control (mortality, anti-feedant effect or growth inhibition) at 200 ppm [4]

CC(Nc1ncnc2c(Br)cc(OC(F)(F)F)cc12)c1ncnn1-c1ccc(C#N)cn1 (centres unmarked) [P.246, 6-[5-[1-[[8-bromo-6-(trifluoromethoxy)quinazo-lin-4-yl]amino]ethyl]-1,2,4-triazol-1-yl]pyridine-3-carbonitrile]
≥ 80%: percent control (mortality or growth inhibition) at 200 ppm [1] | percent control (mortality, anti-feedant effect or growth inhibition) at 200 ppm [3] | percent control (mortality, anti-feedant effect or growth inhibition) at 200 ppm [4]
